The values below are quoted from earlier work in patent US20070025945A1, “Stabilized pharmaceutical and cosmetic composition of catechins or derivatives thereof” (Anagen Therapeutics, Inc., priority 2005, published 2007).

The subject of data set [1] is 5-alpha-reductase isozyme I / isozyme II. The settings on record: 5-alpha-reductase isozymes.
Data set [2] deals with teleocidin-induced tumor promotion. The settings on record: topically applied to skin; mice previously initiated with DMBA.
A further data set has as its system sebum production. The conditions noted are these: topical application directly to the forehead.

The structures appear in SMILES notation.

For `O=C(O[C@@H]1Cc2c(O)cc(O)cc2O[C@@H]1c1ccc(O)c(O)c1)c1cc(O)c(O)c(O)c1` [ECG, (−)-epicatechin-3-gallates], in data set [1], the “activity against isozyme I versus isozyme II” value is given as “more active against isozyme I than isozyme II”. Turning to `O=C(O[C@@H]1Cc2c(O)cc(O)cc2O[C@@H]1c1cc(O)c(O)c(O)c1)c1cc(O)c(O)c(O)c1` [EGCG, (−)-epigallocatechin-3-gallates], in data set [2], the teleocidin-induced tumor promotion result was “inhibits”. In the data set on sebum production, the “sebum production from the human forehead” value is on record as “inhibited”. Moreover, in data set [1], the “activity against isozyme I versus isozyme II” value was “more active against isozyme I than isozyme II”. On to `CCCCC/C=C\C/C=C\C/C=C\CCCCC(=O)O` [gamma-linolenic acid], for which the “sebum production from the human forehead” value in the data set with sebum production was “inhibited”.
